{"source": "patent US6166076A", "about": "“Taste enhancing food additives” (Board of Supervisors of Louisiana State University and …, priority 1997, dated 2000)", "key": {"[1]": {"tested_on": "delayed rectifier K^+ channel", "experiment": "whole-cell patch clamp, delayed rectifier K^+ channel (steady-state outward K^+ current at +40 mV) in rat fungiform taste receptor cells", "format": "cell-based, rat (Sprague-Dawley)", "settings": "for effect on outward K^+ currents, specificity test: 10 μM, >10 min (maximal effect), significance by paired t test; for stimulation of taste receptor cells: summary statement", "from_the_text": "(§1) The effects of free fatty acids (\"FFAs\") on taste buds isolated from rat fungiform papillae were examined to determine if a chemosensory (i.e. non-textural) cue for fats is located in the mouth. The methods used to isolate TRCs were generally as described in Behe et al., \"Membrane Currents in Taste Cells of the Rat Fungiform Papilla: Evidence for Two Types of Ca Currents and Inhibition of K Currents by Saccharin,\" Journal of General Physiology, Vol. 96, pp. 1061-1084 (1990); Doolin et al., \"Distribution and Characterization of Functional Amiloride-sensitive Sodium Channels in Rat Tongue,\" Journal of General Physiology, Vol. 107. pp. 545-554 (1996); and Gilbertson et al., \"Proton Currents Through Amiloride-sensitive Na^+ Channels in Isolated Hamster Taste Cells: Enhancement by Vasopressin and cAMP,\" Neuron, Vol. 10, pp. 931-942 (1993).\n(§2) Individual fungiform taste buds were isolated from the tongues of 2- to 5-month-old male Sprague-Dawley rats (Harlan Sprague Dawley, Indianapolis,Ind.). Animals were housed individually in polycarbonate cages with food (Purina #5001, Purina Mills, St. Louis, Mo.) provided ad lib. The room containing the rats was maintained at 21-23° C. on a 0700-1900 h light-dark cycle. All animal care and experimental procedures were in accordance with National Institutes of Health guidelines, and were approved by the Institutional Animal Care and Use Committee of the Pennington Biomedical Research Center.\n(§3) Tongues were removed from euthanized rats, and were immediately placed in ice-cold Tyrode's solution. To remove the lingual epithelium containing the taste buds from the underlying muscle layer, approximately 1.0 ml of Tyrode's solution containing 0.3 mg/ml collagenase A (Boehringer Mannheim Corp., Indianapolis, Ind.), 2.5 mg/ml dispase (grade II; Boehringer Mannheim) and 1.0 mg/ml trypsin inhibitor (type I-S; Sigma Chemical Co., St. Louis, Mo.) was injected below the epithelium. The injected tongue was placed in Ca--Mg free Tyrode's solution and bubbled with O2 for 33-35 min. The lingual epithelium was removed and pinned serosal side up, allowing access to the taste buds. Fungiform taste buds were removed individually by gentle suction with a large, firepolished pipette (~200 μm diameter), and were plated onto Cell-Tak™-coated microscope slides (Collaborative Biomedical Prod., Bedford, Mass.) fitted with an O-ring which served as a recording chamber. Once plated, cells were perfused continually with Tyrode's or various test solutions. Taste buds isolated in this manner were used for up to 6 hours without any noticeable morphological or physiological decrement.\n(§4) All chemicals were obtained from Sigma Chemical Corporation (St. Louis, Mo.) unless otherwise indicated. Normal extracellular solution (Tyrode's) contained (in mM): NaCl, 140; KCl, 5; CaCl2, 1; MgCl2, 1; HEPES (N-[2-hydroxyethyl] piperazine-N'-[2-ethanesulfonic acid), 10; glucose, 10; and sodium pyruvate, 10. The pH was adjusted to 7.40 with NaOH. In Ca^2+ --Mg^2+ free Tyrode's solution, 2 mM BAPTA (1,2-bis(2-aminophenoxy) ethane-N,N,N',N'-tetraacetic acid) (Molecular Probes, Eugene, Oreg.) replaced CaCl2 and MgCl2. Other components were identical to Tyrode's solution. Intracellular (pipette) solution contained (in mM): KCl, 140; CaCl2, 1 [free Ca^2+ was ~10^-8 M]; MgCl2, 2; HEPES, 10; EGTA (ethylene glycol-bis(β-aminoethylether)-N,N,N',N'-tetraacetic acid), 11; and ATP, 3. The pH was adjusted to 7.20 with KOH.\n(§5) Free fatty acids (FFAs) were stored below -20° C. until the day of use, when they were dissolved in warm ethanol and diluted to final working concentrations in Tyrode's solution. Final ethanol concentrations in Tyrode's were below 0.1%; the ethanol had no effect on ionic currents in any TRCs. All FFAs were applied by bath perfusion. In some experiments, FFA-containing solutions were bubbled continuously with nitrogen to retard oxygenation. […]"}, "[2]": {"tested_on": "outward K^+ currents in rat fungiform taste receptor cells", "experiment": "whole-cell patch clamp, total outward voltage-activated currents in rat fungiform taste receptor cells", "format": "cell-based, rat (Sprague-Dawley)", "from_the_text": "as §1\nIndividual fungiform taste buds were isolated from the tongues of 2- to 5-month-old male Sprague-Dawley rats (Harlan Sprague Dawley, Indianapolis,Ind.). Animals were housed individually in polycarbonate cages with food (Purina #5001, Purina Mills, St. Louis, Mo.) provided ad lib. The room containing the rats was maintained at 21-23° C. on a 0700-1900 h light-dark cycle. […]"}, "[3]": {"tested_on": "delayed rectifying K^+ channels", "experiment": "patch clamp, delayed rectifying K^+ channels of TRCs isolated from S5B/P1 rats", "format": "cell-based", "settings": "for inhibition of the delayed rectifying K^+ channels, S5B/P1 rats: TRCs from S5B/P1 rats; for sensitivity of S5B/P1 TRCs to inhibition compared with O-M TRCs: 10 μM, versus TRCs from O-M rats", "from_the_text": "(§6) To determine if there is a link between the sensitivity of TRCs to PUFAs and dietary fat preferences, the PUFA-sensitivities of TRCs using patch clamp techniques were compared on TRCs isolated from Osborne-Mendel (\"O-M\") rats and S5B/P1 rats, strains with different dietary preferences. O-M rats prefer fat over carbohydrate, while S5B/P1 rats prefer carbohydrate over fat. […] Rats whose TRCs were more sensitive to the fatty acids have a preference for a lower-fat diet; while rats whose TRCs are less sensitive to fatty acids seek diets that are higher in fat."}, "[4]": {"tested_on": "delayed rectifying K^+ channels", "experiment": "patch clamp, delayed rectifying K^+ channels of TRCs isolated from Osborne-Mendel rats", "format": "cell-based", "from_the_text": "as §6"}, "[5]": {"tested_on": "rat fungiform taste receptor cells", "experiment": "current clamp, stimulus-induced depolarization of rat fungiform taste receptor cells", "format": "cell-based, rat (Sprague-Dawley)", "procedure": "Voltage-activated currents were recorded from individual taste receptor cells maintained in the taste bud using the whole-cell patch clamp configuration, as generally described in Hamill et al., \"Improved Patch-clamp Techniques for High-resolution Current Recording from Cells and Cell-free Membrane Patches,\" Pflugers Arch., Vol. 391, pp. 85-100 (1981). Patch pipettes were made by pulling mlcrohematocrit tubes (Scientific Products, McGaw Park, Ill.) on a Flaming/Brown micropipette puller (model P-97; Sutter Instrument Co., Novato, Calif.), and subsequently firepolishing on a microforge (model MF-9; Narishige, Tokyo) to a resistance between 5 and 10 M.OMEGA. when filled with intracellular solution.\nSince arachidonic acid and linoleic acid inhibit K^+ currents in TRCs and these channels play crucial roles in repolarizing the cells following activity, the presence of such FFAs should affect how these cells respond during stimulus-induced activity. This prediction was tested in cells in current clamp mode during perfusion of saline, both in the absence and presence of 10 μM linoleic acid. In response to current injection (+18 pA), TRCs typically fired 0-3 action potentials, followed by a sustained depolarization lasting as long as the stimulus was present. […] On average, the sustained depolarization during current injection (18 pA) in the rat fungiform taste receptor cells was 22.4±8.5 mV during perfusion of physiological saline (n=7 cells). Addition of 10 μM linoleic acid to the perfusate of the same cells increased the mean voltage response to 36.8±9.2 mV (n=7), an increase of 64%."}, "[6]": {"tested_on": "inwardly rectifying K^+ channels (Kir)", "experiment": "whole-cell patch clamp, inwardly rectifying K^+ channels (Kir) at -130 mV in rat fungiform taste receptor cells", "format": "cell-based, rat (Sprague-Dawley)", "settings": "n=5 cells", "from_the_text": "as §1, §2, §3, §4, §5"}}, "note": "“Also recorded” adds a separate entry of the source.", "data": [{"compound": "O=S(=O)(c1cccc2cnccc12)N1CCNCC1", "note": "[HA-100, reference compound]", "values": [{"measurement": "effect of PKC/PKA inhibitor on linoleic acid-induced inhibition of outward K^+ currents", "setting": "[1]; 25 μM, intracellular, n=6 cells", "result": "did not prevent linoleic acid-induced inhibition of outward K^+ currents"}]}, {"compound": "CCCCC/C=C\\C/C=C\\C/C=C\\C/C=C\\CCCC(=O)OC", "note": "[arachidonic acid methyl ester]", "values": [{"measurement": "modulation of TRC K^+ currents by esterified fatty acid", "setting": "[2]; arachidonic acid methyl ester: n=5 cells", "result": "ineffective"}]}, {"compound": "CCCCCCCC/C=C\\CCCCCCCCCCCC(=O)O", "note": "[erucic acid, reference compound]", "values": [{"measurement": "effect on outward K^+ currents, specificity test", "setting": "[1]", "result": "did not have significant effects"}]}, {"compound": "Nc1nc2c(ncn2[C@@H]2O[C@H](COP(=O)(O)OP(O)(O)=S)[C@@H](O)[C@H]2O)c(=O)[nH]1", "note": "[guanosine 5'-O-(2-thiodiphosphate), reference compound]", "values": [{"measurement": "effect of G protein inhibitor on FFA effects on outward currents", "setting": "[1]; 0.5 mM in the patch pipette, n=5", "result": "did not inhibit the effects of FFA on outward currents"}]}, {"compound": "CCCCCCCCCCCC(=O)O", "note": "[lauric acid, reference compound]", "values": [{"measurement": "inhibition of the delayed rectifying K^+ channels, S5B/P1 rats", "setting": "[3]", "result": "ineffective"}, {"measurement": "inhibition of the delayed rectifying K^+ channels, O-M rats", "setting": "[4]", "result": "ineffective"}]}, {"compound": "CCCCC/C=C\\C/C=C\\CCCCCCCC(=O)O", "note": "[linoleic acid]", "values": [{"measurement": "sensitivity of S5B/P1 TRCs to inhibition compared with O-M TRCs", "setting": "[3]", "result": "significantly more sensitive to inhibition"}, {"measurement": "inhibition of the delayed rectifying K^+ channels, S5B/P1 rats", "setting": "[3]", "result": "inhibited the delayed rectifying K^+ channels in a concentration-dependent manner"}, {"measurement": "effect on stimulus-induced depolarization (in words)", "setting": "[5]; 10 μM linoleic acid", "result": "significantly enhanced stimulus-induced depolarization of TRCs; also recorded: increase in the magnitude of stimulus-induced depolarization of taste receptor cells; also recorded: prolonged \"tail\" potential following termination of the stimulus"}, {"measurement": "sustained depolarization during current injection (mean voltage response)", "setting": "[5]; 10 μM linoleic acid, 18 pA, n=7 cells, saline 22.4±8.5 mV", "result": "36.8±9.2", "unit": "mV"}, {"measurement": "activation at 10 µM", "setting": "[5]; Rattus norvegicus, 10 μM, 18 pA, n=7, read-out: increase of mean voltage response over saline", "result": 64, "unit": "%"}, {"measurement": "inhibition of the delayed rectifying K^+ channels, O-M rats", "setting": "[4]", "result": "inhibited the delayed rectifying K^+ channels in a concentration-dependent manner"}, {"measurement": "effect of intracellular application on outward K^+ currents", "setting": "[1]; 10 μM in the pipette (intracellular) solution, up to 30 min or more", "result": "no effect"}, {"measurement": "effect on outward K^+ currents, specificity test", "setting": "[1]", "result": "significantly reduced outward K^+ currents"}, {"measurement": "effect on outward K^+ currents on subsequent extracellular addition", "setting": "[1]; linoleic acid also in pipette, added extracellularly, n=11 cells", "result": "outward K^+ currents were inhibited"}, {"measurement": "inhibition of outward K^+ currents in metyrapone-treated TRCs", "setting": "[1]; metyrapone 1 mM, 15 min, n=6 cells", "result": "still inhibited by linoleic acid in a quantitatively similar fashion"}, {"measurement": "stimulation of taste receptor cells", "setting": "[1]", "result": "stimulate taste receptor cells"}, {"measurement": "relative potency among the FFAs tested", "setting": "[1]; trend in effects on both types of K^+ currents", "result": "the most potent of the FFAs tested"}]}, {"compound": "CCCCC/C=C/C/C=C/CCCCCCCC(=O)O", "note": "[linolelaidic acid, reference compound]", "values": [{"measurement": "effect on outward K^+ currents, specificity test", "setting": "[1]", "result": "did not significantly affect outward K^+ currents"}, {"measurement": "effect on outward K^+ currents, specificity test", "setting": "[1]; listed as linolelaidic", "result": "no effect on outward K^+ currents"}]}, {"compound": "CC/C=C/C/C=C/C/C=C/CCCCCCCC(=O)O", "note": "[linolenelaidic acid, reference compound]", "values": [{"measurement": "effect on outward K^+ currents, specificity test", "setting": "[1]", "result": "no effect on outward K^+ currents; also recorded: did not significantly affect outward K^+ currents"}]}, {"compound": "CC(C)(C(=O)c1cccnc1)c1cccnc1", "note": "[metyrapone]", "values": [{"measurement": "inhibition at 1000 µM", "setting": "[2]; Rattus norvegicus, 1 mM, n=6 cells, read-out: inhibition of the outward current by metyrapone alone", "result": "23.8 ± 9.7", "unit": "%"}]}, {"compound": "CCCCCCCC/C=C\\CCCCCCCCCCCCCC(=O)O", "note": "[nervonic acid, reference compound]", "values": [{"measurement": "effect on outward K^+ currents, specificity test", "setting": "[1]", "result": "did not have significant effects"}]}, {"compound": "CCCCCCCC/C=C\\CCCCCCCC(=O)O", "note": "[oleic acid, reference compound]", "values": [{"measurement": "enhancement of Kir", "setting": "[6]", "result": "did not enhance Kir"}, {"measurement": "effect on outward K^+ currents, specificity test", "setting": "[1]", "result": "did not have significant effects"}]}, {"compound": "CCCCCC/C=C\\CCCCCCCC(=O)O", "note": "[palmitoleic acid, reference compound]", "values": [{"measurement": "effect on outward K^+ currents, specificity test", "setting": "[1]", "result": "did not have significant effects"}]}, {"compound": "linolenic acid", "values": [{"measurement": "sensitivity of S5B/P1 TRCs to inhibition compared with O-M TRCs", "setting": "[3]", "result": "significantly more sensitive to inhibition"}, {"measurement": "inhibition of the delayed rectifying K^+ channels, S5B/P1 rats", "setting": "[3]", "result": "inhibited the delayed rectifying K^+ channels in a concentration-dependent manner"}, {"measurement": "inhibition of the delayed rectifying K^+ channels, O-M rats", "setting": "[4]", "result": "inhibited the delayed rectifying K^+ channels in a concentration-dependent manner"}, {"measurement": "effect on outward K^+ currents, specificity test", "setting": "[1]", "result": "significantly reduced outward K^+ currents"}, {"measurement": "stimulation of taste receptor cells", "setting": "[1]", "result": "stimulate taste receptor cells"}]}]}
